From PubChem BioAssay AID194 (DTP/NCI, 2004)
“And” between values parts separate entries of the source, which are not always exact repeats. Equal values may be shown once. Results filed as inconclusive are left out.

Tested on: BDF1 mice, B16 melanoma s.c., survival/tumor T/C
Assay: NCI In Vivo Anticancer Drug Screen. Data for tumor model B16 Melanoma (subcutaneous) in B6D2F1 (BDF1) mice
Protocol: The antitumor activity of compounds was measured in mice bearing transplantable tumors. Survival or tumor size were measured and the results are expressed as the measurement made in the treated group (T) divided by the measurement made in the vehicle treated control group (C). The tumor model used in this assay is B16 Melanoma (subcutaneous) in B6D2F1 (BDF1) mice

SMILES: CNNCc1ccc(C(=O)NC(C)C)cc1
- T/C (endpoint: median survival time, dose: 40.0 mg/kg/injection, schedule: Q01DX009 (ip), vehicle: Klucel (hydroxypropylcellulose) (HPC), higher = longer survival): 102 % of control
- T/C (endpoint: median survival time, dose: 80.0 mg/kg/injection, schedule: Q01DX009 (ip), vehicle: Klucel (hydroxypropylcellulose) (HPC), higher = longer survival): 113 % of control
- T/C (endpoint: median survival time, dose: 160.0 mg/kg/injection, schedule: Q01DX009 (ip), vehicle: Klucel (hydroxypropylcellulose) (HPC), higher = longer survival): 102 % of control and 115 % of control
- T/C (endpoint: median survival time, dose: 320.0 mg/kg/injection, schedule: Q01DX009 (ip), vehicle: Klucel (hydroxypropylcellulose) (HPC), higher = longer survival): 95 % of control

SMILES: CNc1ncnc2c1cnn2C
- T/C (endpoint: median survival time, dose: 10.0 mg/kg/injection, schedule: Q01DX009 (ip), vehicle: saline, higher = longer survival): 92 % of control
- T/C (endpoint: median survival time, dose: 20.0 mg/kg/injection, schedule: Q01DX009 (ip), vehicle: saline, higher = longer survival): 103 % of control

SMILES: CCN1C=C/C(=C/c2cc3scc(-c4ccccc4)[n+]3c3ccccc23)c2ccccc21
- T/C (endpoint: median survival time, dose: 0.15 mg/kg/injection, schedule: Q01DX009 (ip), vehicle: Klucel (hydroxypropylcellulose) (HPC), higher = longer survival): 107 % of control

SMILES: O=c1[nH]c(=O)n(C2CC(O)C(CO)O2)cc1F (centres undefined)
- T/C (endpoint: median survival time, dose: 25.0 mg/kg/injection, schedule: Q01DX009 (ip), vehicle: saline with Tween-80, higher = longer survival): 109 % of control
- T/C (endpoint: median survival time, dose: 100.0 mg/kg/injection, schedule: Q01DX009 (ip), vehicle: saline with Tween-80, higher = longer survival): 122 % of control
- T/C (endpoint: median survival time, dose: 200.0 mg/kg/injection, schedule: Q01DX009 (ip), vehicle: saline with Tween-80, higher = longer survival): 120 % of control
- T/C (endpoint: median survival time, dose: 200.0 mg/kg/injection, schedule: Q04DX003 (ip), vehicle: saline, higher = longer survival): 112 % of control
- T/C (endpoint: median tumor weight (est.), dose: 25.0 mg/kg/injection, schedule: Q01DX009 (ip), vehicle: saline with Tween-80, higher = larger tumour): 68 % of control
- T/C (endpoint: median tumor weight (est.), dose: 50.0 mg/kg/injection, schedule: Q01DX009 (ip), vehicle: saline with Tween-80, higher = larger tumour): 59 % of control
- T/C (endpoint: median tumor weight (est.), dose: 50.0 mg/kg/injection, schedule: Q01DX009 (ip), vehicle: saline, higher = larger tumour): 96 % of control and 220 % of control
- T/C (endpoint: median tumor weight (est.), dose: 100.0 mg/kg/injection, schedule: Q01DX009 (ip), vehicle: saline with Tween-80, higher = larger tumour): 41 % of control
- T/C (endpoint: median tumor weight (est.), dose: 100.0 mg/kg/injection, schedule: Q01DX009 (ip), vehicle: saline, higher = larger tumour): 49 % of control and 71 % of control
- T/C (endpoint: median tumor weight (est.), dose: 200.0 mg/kg/injection, schedule: Q01DX009 (ip), vehicle: saline, higher = larger tumour): 55 % of control

SMILES: COc1cc2c[n+](C)c3c4cc5c(cc4ccc3c2cc1OC)OCO5
- T/C (endpoint: median survival time, dose: 3.12 mg/kg/injection, schedule: Q01DX009 (ip), vehicle: Klucel (hydroxypropylcellulose) (HPC), higher = longer survival): 107 % of control
- T/C (endpoint: median survival time, dose: 6.25 mg/kg/injection, schedule: Q01DX009 (ip), vehicle: Klucel (hydroxypropylcellulose) (HPC), higher = longer survival): 96 % of control
- T/C (endpoint: median survival time, dose: 12.5 mg/kg/injection, schedule: Q01DX009 (ip), vehicle: Klucel (hydroxypropylcellulose) (HPC), higher = longer survival): 116 % of control

SMILES: CCN1/C(=C/C=C/C=C/c2sc3ccccc3[n+]2CC)Sc2ccccc21
- T/C (endpoint: median survival time, dose: 63.0 micrograms/kg/injection, schedule: Q01DX009 (ip), vehicle: saline, higher = longer survival): 117 % of control
- T/C (endpoint: median survival time, dose: 125.0 micrograms/kg/injection, schedule: Q01DX009 (ip), vehicle: saline, higher = longer survival): 120 % of control

SMILES: Cc1c(N)nc(C(CC(N)=O)NCC(N)C(N)=O)nc1C(=O)NC(C(=O)NC(C)C(O)C(C)C(=O)NC(C(=O)NCCc1nc(-c2nc(C(=O)NCCCNCCCc3ccccn3)cs2)cs1)C(C)O)C(OC1OC(CO)C(O)C(O)C1OC1OC(CO)C(O)C(OC(N)=O)C1O)c1cnc[nH]1 (centres undefined)
- T/C (endpoint: median survival time, dose: 0.1 mg/kg/injection, schedule: Q01DX010 (ip), vehicle: water, higher = longer survival): 101 % of control
- T/C (endpoint: median survival time, dose: 0.2 mg/kg/injection, schedule: Q01DX010 (ip), vehicle: water, higher = longer survival): 116 % of control and 124 % of control
- T/C (endpoint: median survival time, dose: 0.4 mg/kg/injection, schedule: Q01DX010 (ip), vehicle: water, higher = longer survival): 96 % of control and 124 % of control
- T/C (endpoint: median survival time, dose: 1.6 mg/kg/injection, schedule: Q01DX010 (ip), vehicle: water, higher = longer survival): 117 % of control
- T/C (endpoint: median survival time, dose: 3.2 mg/kg/injection, schedule: Q01DX010 (ip), vehicle: water, higher = longer survival): 88 % of control

SMILES: CCCCC[C@H](O)/C=C/[C@H]1[C@H](O)CC(=O)[C@@H]1C/C=C\CCCC(=O)O
- T/C (endpoint: median survival time, dose: 0.75 mg/kg/injection, schedule: Q04DX002 (ip), vehicle: Klucel (hydroxypropylcellulose) (HPC), higher = longer survival): 98 % of control
- T/C (endpoint: median survival time, dose: 3.0 mg/kg/injection, schedule: Q04DX002 (ip), vehicle: Klucel (hydroxypropylcellulose) (HPC), higher = longer survival): 118 % of control
- T/C (endpoint: median survival time, dose: 6.0 mg/kg/injection, schedule: Q04DX002 (ip), vehicle: Klucel (hydroxypropylcellulose) (HPC), higher = longer survival): 122 % of control
- T/C (endpoint: median survival time, dose: 12.5 mg/kg/injection, schedule: Q04DX002 (ip), vehicle: saline with Tween-80, higher = longer survival): 87 % of control

SMILES: COc1ccc(CCN2C(=O)CSC2=S)cc1OC
- T/C (endpoint: median survival time, dose: 25.0 mg/kg/injection, schedule: Q01DX009 (ip), vehicle: Klucel (hydroxypropylcellulose) (HPC), higher = longer survival): 120 % of control
- T/C (endpoint: median survival time, dose: 50.0 mg/kg/injection, schedule: Q01DX009 (ip), vehicle: Klucel (hydroxypropylcellulose) (HPC), higher = longer survival): 123 % of control
- T/C (endpoint: median survival time, dose: 100.0 mg/kg/injection, schedule: Q01DX009 (ip), vehicle: Klucel (hydroxypropylcellulose) (HPC), higher = longer survival): 116 % of control
